Columns and labels:
[1] = tested on: mushroom tyrosinase (EC 1.14.18.1); assay: Tyrosinase inhibition assay (test for whitening activity); assay type: biochemical
Protocol: Tyrosinase activity is determined in reaction mixtures containing […], 30 units/ml of mushroom tyrosinase (EC 1.14.18.1), 75 mM sodium phosphate (pH 7.5), and test sample at the indicated concentrations. The reaction is conducted at room temperature and is monitored by measuring the increase in OD405 as melanin pigment is produced.
Tyrosinase activity was determined by measuring the rate of change of optical density at 490 nm as tyrosine was converted into dopachrome. (Tyrosinase catalyzes the conversion of tyrosine into DOPA quinone, which spontaneously converts into dopachrome.) The rate of tyrosinase activity in the presence of various concentrations of test sample was measured at room temperature in a reaction mixture containing 50 mM sodium phosphate (pH 6.75), 275 μM tyrosine and 25U/ml mushroom tyrosinase (wherein U refers to the units of enzyme activity. Readings were made at one minute intervals for ten minutes and the reaction rate was calculated by linear regression. Each concentration was run in triplicate. Inhibition of tyrosinase activity was expressed as a percentage of the activity measured for the untreated control mixture (no test sample). An EC50 (the concentration of test sample that inhibits 50% of tyrosinase activity) was calculated.

Cloudman S91 melanocytes = assay: Cell-based whitening/tanning assay (melanocyte pigmentation assay); settings: concentration 30 (30μM in method), 5-day treatment, 10nM MSH
Protocol: The melanocyte pigmentation assay measures a test sample's ability to inhibit pigmentation. […] After a 5-day treatment period with each condition tested in triplicate wells, the cells were harvested by washing with PBS and adding 5% trichloroacetic acid to each well. After a 15 minute incubation the acid was aspirated and replaced with 200μl/well of 10% dimethyl sulfoxide/1N sodium hydroxide. The plates were sealed and incubated at 65° C. for 30 minutes. 200μl of each digestion mixture was then transferred to a well of a 96-well microtiter plate and optical densities were read at 405 nm.
An EC50 (the concentration of test sample that inhibits 50% of pigmentation) was calculated for each sample.

With `Oc1ccc(O)cc1` [Hydroquinone] the “% inhibition (tyrosinase)” value ([1]; concentration 1.25 (M)) was 26.7%, the “mod/min mean (tyrosinase reaction rate)” value ([1]; concentration 1.25 (M)) was 7.95 mod/min and the “% inhibition (tyrosinase)” value ([1]; concentration 2.5 (M)) was 45.5%. For the same compound, the “mod/min mean (tyrosinase reaction rate)” value ([1]; concentration 2.5 (M)) was 5.92 mod/min, the “% inhibition (tyrosinase)” value ([1]; concentration 10.5 (M)) was 75.8% and the “mod/min mean (tyrosinase reaction rate)” value ([1]; concentration 10.5 (M)) was 2.63 mod/min. The “% inhibition (tyrosinase)” value ([1]; concentration 20 (M)) was 92.2%, the “mod/min mean (tyrosinase reaction rate)” value ([1]; concentration 20 (M)) was 0.85 mod/min and the inhibition at 30 µM (Cloudman S91 melanocytes; Melanocyte, 120 h, read-out: % Stimulation (+)/ Inhibition (−) of pigmentation) was 36.6%. The “mean (optical density at 405 nm, pigmentation)” value (Cloudman S91 melanocytes) was 0.801.

— patent publication US6365137B1, “Skin whitening agents” (Collaborative Laboratories, Inc., priority 1999, dated 2002)
